Results as given in publication PMC7048748, “Anxiolytic Drug FGIN-1-27 Ameliorates Autoimmunity by Metabolic Reprogramming of Pathogenic Th17 Cells” (Scientific Reports, 2020).

What was measured:
[1] = test system: experimental autoimmune encephalomyelitis (EAE); test: Passive EAE by adoptive transfer of treated 2D2 Th17 cells; assay type: in vivo, mouse
Procedure: We interrogated whether FGIN-1-27 can influence Th17 dependent pathology in vivo by using a mouse model of passive EAE in which Th17 cells are responsible for driving immuno-pathogenesis. To this end, we sorted naïve CD4^+ T cells (CD4^+Vβ11^+CD62L^hi) from spleen and lymph nodes of “2D2” T cell receptor (TCR) transgenic mice that specifically recognize myelin oligodendrocyte glycoprotein (MOG) peptide and activated them under Th17 polarizing conditions. The cultures were treated with DMSO or FGIN-1-27 during the Th17 differentiation process and cells were reactivated on day 5 for an additional 48 hours and equal numbers of 2D2 Th17 polarized cells treated either with DMSO or FGIN-1-27 were adoptively transferred to recipient mice.
(a) Immunophenotyping of 2D2 TCR transgenic CD4^+ T cells for intracellular IL-17 and IFNγ before adoptive transfer. Cultures were treated with DMSO or FGIN-1-27 during Th17 polarization process. (b) Mean clinical scores of mice following the adoptive transfer of 5 × 10^6 2D2 Th17 cells treated with DMSO or 5 × 10^6 2D2 Th17 cells treated with FGIN-1-27. […] The error bars represent SEM. (c) Mean clinical scores of T cell-deficient (Tcrb^−/−) mice following adoptive transfer of 5 × 10^6 2D2 Th17 cells treated with DMSO or 5 × 10^6 2D2 Th17 cells treated with FGIN-1-27. […] The error bars represent SEM. (d) Enumeration of total mononuclear or 2D2 CD4^+ T cells (CD4^+Vβ11^+) in spleens of mice receiving either DMSO or FGIN-1-27 treated 2D2 T cells. Cells were analyzed at the peak of EAE disease (day 15 post-transfer) by flow cytometry. The error bars represent SD. (e) Enumeration of total CNS mononuclear or CNS-infiltrating 2D2 CD4^+ T cells (CD4^+Vβ11^+) in mice receiving either DMSO or FGIN-1-27 treated 2D2 T cells. Cells were analyzed at the peak of EAE disease (day 15 post-transfer) by flow cytometry. The errors bars represent SD. (f) Intracellular cytokine staining of 2D2 CD4^+ T cells (day 15 post-transfer) for IL-17, IFNγ and GM-CSF from the CNS of mice that received either DMSO or FGIN-1-27 treated cells. The error bars represent SD.
Naïve CD4^+ T cells (CD4^+Vβ11^+CD62L^hi) were sorted from the spleens and lymph nodes of 2D2 TCR transgenic mice and polarized towards Th17 lineage in the presence of irradiated splenocytes (5:1 ratio) and 2.5 μg/ml anti-CD3 (145-2C11, BioXCell), 20 μg/ml anti-IL-4 (11B11, BioXCell), 20 μg/ml anti-IFNγ (XMG1.2, BioXCell), 30 ng/ml mIL-6 and 3 ng/ml hTGF-β1 (Miltenyi Biotec). The following day, cells were treated with either DMSO or FGIN-1-27 (10 μM) and IL-23 (10 ng/ml; R&D Systems) was added after 60 h of activation. On day 5 of culture, cells were reactivated on plates precoated with 2 μg/ml of anti-CD3 and anti-CD28 (PV1, BioXCell) for 48 h, and 5 million cells were adoptively transferred to recipient mice to induce passive-transfer EAE. Classical EAE symptoms were scored daily according to standard criteria: 0, asymptomatic; 1, flaccid tail; 2, hind-limb weakness and impaired righting ability; 3, hind-limb paralysis; 4, front- and hind-limb paralysis; 5, moribund or death.

[2] = test system: experimental autoimmune encephalomyelitis (EAE); test: Active EAE induced with MOG peptide 35-55; assay type: in vivo, mouse; details: 30 mg/kg intraperitoneal twice daily for 7 days

CCCCCCN(CCCCCC)C(=O)Cc1c(-c2ccc(F)cc2)[nH]c2ccccc12 [FGIN-1-27, N, N-di-n-hexyl 2-(4-fluorophenyl) indole-3-acetamide]
onset and severity of EAE ([1]; T cell deficient (Tcrb−/−) recipient mice, p = 0.0067): delayed onset and reduced severity of EAE
2D2 CD4+ T cells recovered from the CNS ([1]; day 15 post-transfer): fewer
2D2 CD4+ T cells recovered from the spleens ([1]; day 15 post-transfer): higher number
IFNγ and GM-CSF production of CNS 2D2 CD4+ T cells ([1]; day 15 post-transfer): intact
percentage and absolute numbers of IL-17 producing 2D2 CD4+ T cells from the CNS ([1]; day 15 post-transfer): significant reduction
IL-17 producing 2D2 T cells before adoptive transfer ([1]; pre-transfer, 10 μM during Th17 polarization): reduced percentage of IL-17 producing cells
disease symptoms (mean clinical scores) ([1]; recipient mice, 5 × 10^6 treated 2D2 Th17 cells, p < 0.02): much milder disease symptoms
onset or severity of the symptoms [2]: did not affect onset or severity
